Data published in patent US20220396577A1, “NOVEL SUBSTITUTED 1,3-8-TRIAZASPIRO[4,5] DECANE-2,4-DIONE COMPOUNDS AS INDOLEAMINE 2,3-DIOXYGENASE (IDO) AND/OR TRYPTOPHAN 2,3-DIOXYGENASE (TDO) INHIBITORS” (Merck Sharp & Dohme LLC, priority 2019, published 2022).

Legend:
[1] = molecular target: T1, TDO (Homo sapiens, UniProt P48775); test: TDO Cellular Assay (C), SW48 cells; assay type: cell-based; conditions: 48 hours, second value of cell
T1 construct: endogenous in cells; host or cells: SW48 cells
Description: Compounds were serially diluted in DMSO and acoustically dispensed (LabCyte Echo) into each well of a black 384-well cell culture plate (Greiner). SW48 cells were diluted to a density of 2×10^5 cells/ml in complete RPMI culture medium supplemented with […] L-tryptophan and […] SW48 cells were dispensed to each well of 384-well plates with a compound. Plates are gently shaken and then incubated for 48 hours at 37° C. in an incubator with 5% CO2. After incubation, 12 μl of the detection agent (0.5 M isonipecotate in DMSO) was added to each well and incubated at 37° C. overnight. The fluorescent signal was read on a Spectramax plate reader with excitation at 400 nm and emission at 510 nm. The percent inhibition was determined by normalization to wells containing no compound relative to wells receiving no cells.

[2] = molecular target: T2, FLT3(D835Y) (Homo sapiens, UniProt P36888, D835Y); test: Off-target kinase panel, ZLYTE: FLT3(D835Y); assay type: biochemical; conditions: read-out: Estimated IC50 (uM) FLT3(D835Y)
T2 sequence (P36888 27-993 D835Y): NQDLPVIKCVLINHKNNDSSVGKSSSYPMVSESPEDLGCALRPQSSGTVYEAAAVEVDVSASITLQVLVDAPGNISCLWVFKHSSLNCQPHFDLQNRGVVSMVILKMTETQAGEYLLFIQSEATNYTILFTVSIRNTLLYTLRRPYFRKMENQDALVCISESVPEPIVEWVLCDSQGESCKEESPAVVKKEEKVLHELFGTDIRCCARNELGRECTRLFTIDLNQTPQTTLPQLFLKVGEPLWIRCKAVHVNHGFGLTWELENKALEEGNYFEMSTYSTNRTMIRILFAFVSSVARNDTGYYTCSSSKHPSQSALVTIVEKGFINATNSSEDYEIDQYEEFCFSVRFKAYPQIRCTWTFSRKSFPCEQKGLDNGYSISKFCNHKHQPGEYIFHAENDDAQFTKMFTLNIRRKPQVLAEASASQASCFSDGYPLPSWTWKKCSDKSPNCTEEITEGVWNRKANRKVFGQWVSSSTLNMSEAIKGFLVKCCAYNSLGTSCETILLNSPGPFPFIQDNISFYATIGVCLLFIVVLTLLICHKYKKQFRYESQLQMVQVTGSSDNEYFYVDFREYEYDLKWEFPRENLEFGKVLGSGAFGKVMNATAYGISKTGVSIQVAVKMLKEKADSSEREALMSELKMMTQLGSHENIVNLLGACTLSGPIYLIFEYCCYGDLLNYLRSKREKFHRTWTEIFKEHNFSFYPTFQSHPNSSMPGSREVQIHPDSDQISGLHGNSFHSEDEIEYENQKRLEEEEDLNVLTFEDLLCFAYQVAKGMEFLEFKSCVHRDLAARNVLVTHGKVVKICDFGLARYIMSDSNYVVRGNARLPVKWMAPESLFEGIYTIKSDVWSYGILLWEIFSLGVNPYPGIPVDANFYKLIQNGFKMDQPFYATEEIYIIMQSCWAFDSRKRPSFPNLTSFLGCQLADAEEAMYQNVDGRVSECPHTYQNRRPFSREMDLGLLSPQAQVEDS
Description: The activity data was obtained in a panel of 265 and 264 for compounds 1-1 and CC-1, respectively, using the ZLYTE and ADAPTA assay methods indicated in the table below.
The ZLYTE biochemical assay employs a fluorescence-based, coupled-enzyme format and is based on the differential sensitivity of phosphorylated and non-phosphorylated peptides to proteolytic cleavage. The peptide substrate is labeled with two fluorophores—one at each end—that make up a Fluorescence Resonance Energy Transfer (FRET) pair.
In the primary reaction, the kinase transfers the gamma-phosphate of ATP to a single tyrosine, serine or threonine residue in a synthetic FRET-peptide. In the secondary reaction, a site-specific protease recognizes and cleaves non-phosphorylated FRET-peptides. Phosphorylation of FRET-peptides suppresses cleavage by the Development Reagent. […] A ratiometric method, which calculates the ratio (the Emission Ratio) of donor emission to acceptor emission after excitation of the donor fluorophore at 400 nm, is used to quantitate reaction progress, as shown in the equation below. […]
Both cleaved and uncleaved FRET-peptides contribute to the fluorescence signals and therefore to the Emission Ratio. The extent of phosphorylation of the FRET-peptide can be calculated from the Emission Ratio. […]
10. Read on fluorescence plate reader and analyze the data.

T1 sequence (P48775 whole entry): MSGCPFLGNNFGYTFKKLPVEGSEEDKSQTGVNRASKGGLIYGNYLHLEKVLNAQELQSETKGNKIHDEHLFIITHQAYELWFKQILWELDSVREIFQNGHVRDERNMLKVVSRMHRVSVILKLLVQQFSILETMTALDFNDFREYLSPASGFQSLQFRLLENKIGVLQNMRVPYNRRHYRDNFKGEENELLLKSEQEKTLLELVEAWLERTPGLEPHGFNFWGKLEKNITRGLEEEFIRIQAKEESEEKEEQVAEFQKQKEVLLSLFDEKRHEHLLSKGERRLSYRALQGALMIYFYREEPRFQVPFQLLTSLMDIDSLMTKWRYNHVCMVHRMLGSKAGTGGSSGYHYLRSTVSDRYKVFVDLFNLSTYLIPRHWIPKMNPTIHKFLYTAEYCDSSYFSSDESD

| IC50 [1] [nM] | IC50 [2] [µM] | SMILES |
| --- | --- | --- |
| 247 | – | C[C@@H]1CN(c2cc(Br)cc3[nH]ncc23)CC[C@]12NC(=O)NC2=O (single isomer, unassigned) [Compound 1-1] |
| 206 | 1.5 | O=C1NC(=O)C2(CCN(c3cc(Cl)cc4[nH]ncc34)CC2)N1 [CC-1] |
